# Test results: BindingDB's records for doi:10.1016/s0960-894x(03)00205-1 (Abbott Laboratories, 2003)
# Experiment: Potassium channel opening activity in vitro using LtK cells transfected with Kir6.2/SUR2B exon 17
row,Structure (SMILES),EC50
1,"Cc1cccc(C(=O)Nc2c(C(O)(C(F)(F)F)C(F)(F)F)ccc3ccccc23)c1 [3-Methyl-N-[2-(2,2,2-trifluoro-1-hydroxy-1-trifluoromethyl-ethyl)-naphthalen-1-yl]-benzamide]",23 nM
2,"O=C(Nc1c(C(O)(C(F)(F)F)C(F)(F)F)ccc2ccccc12)c1cccc([N+](=O)[O-])c1 [3-Nitro-N-[2-(2,2,2-trifluoro-1-hydroxy-1-trifluoromethyl-ethyl)-naphthalen-1-yl]-benzamide]",117 nM
3,"O=C(Nc1c(C(O)(C(F)(F)F)C(F)(F)F)ccc2ccccc12)c1ccc(Br)cc1 [4-Bromo-N-[2-(2,2,2-trifluoro-1-hydroxy-1-trifluoromethyl-ethyl)-naphthalen-1-yl]-benzamide]",47 nM
4,"O=C(Nc1c(C(O)(C(F)(F)F)C(F)(F)F)ccc2ccccc12)c1ccc(Cl)cc1 [4-Chloro-N-[2-(2,2,2-trifluoro-1-hydroxy-1-trifluoromethyl-ethyl)-naphthalen-1-yl]-benzamide]",570 nM
5,"O=C(Nc1c(C(O)(C(F)(F)F)C(F)(F)F)ccc2ccccc12)c1ccc(F)cc1 [4-Fluoro-N-[2-(2,2,2-trifluoro-1-hydroxy-1-trifluoromethyl-ethyl)-naphthalen-1-yl]-benzamide]",70 nM
6,"COc1ccc(C(=O)Nc2c(C(O)(C(F)(F)F)C(F)(F)F)ccc3ccccc23)cc1 [4-Methoxy-N-[2-(2,2,2-trifluoro-1-hydroxy-1-trifluoromethyl-ethyl)-naphthalen-1-yl]-benzamide]",417 nM
7,"Cc1ccc(C(=O)Nc2c(C(O)(C(F)(F)F)C(F)(F)F)ccc3ccccc23)cc1 [4-Methyl-N-[2-(2,2,2-trifluoro-1-hydroxy-1-trifluoromethyl-ethyl)-naphthalen-1-yl]-benzamide]",76 nM
8,"CC(C)CCC(=O)Nc1c(C(O)(C(F)(F)F)C(F)(F)F)ccc2ccccc12 [4-Methyl-pentanoic acid [2-(2,2,2-trifluoro-1-hydroxy-1-trifluoromethyl-ethyl)-naphthalen-1-yl]-amide]",49 nM
9,"O=C(Nc1c(C(O)(C(F)(F)F)C(F)(F)F)ccc2ccccc12)c1ccc(-c2ccccc2)cc1 [Biphenyl-4-carboxylic acid [2-(2,2,2-trifluoro-1-hydroxy-1-trifluoromethyl-ethyl)-naphthalen-1-yl]-amide]",> 10000 nM
10,"O=C(Nc1c(C(O)(C(F)(F)F)C(F)(F)F)ccc2ccccc12)C1CCC1 [Cyclobutanecarboxylic acid [2-(2,2,2-trifluoro-1-hydroxy-1-trifluoromethyl-ethyl)-naphthalen-1-yl]-amide]",45 nM
11,"O=C(Nc1c(C(O)(C(F)(F)F)C(F)(F)F)ccc2ccccc12)C1CC1 [Cyclopropanecarboxylic acid [2-(2,2,2-trifluoro-1-hydroxy-1-trifluoromethyl-ethyl)-naphthalen-1-yl]-amide]",751 nM
12,"O=C(Nc1c(C(O)(C(F)(F)F)C(F)(F)F)ccc2ccccc12)c1ccc(OC(F)(F)F)cc1 [N-[2-(2,2,2-Trifluoro-1-hydroxy-1-trifluoromethyl-ethyl)-naphthalen-1-yl]-4-trifluoromethoxy-benzamide]",> 10000 nM
13,"O=C(Nc1c(C(O)(C(F)(F)F)C(F)(F)F)ccc2ccccc12)c1ccc(C(F)(F)F)cc1 [N-[2-(2,2,2-Trifluoro-1-hydroxy-1-trifluoromethyl-ethyl)-naphthalen-1-yl]-4-trifluoromethyl-benzamide]",160 nM
14,"CC(=O)Nc1c(C(O)(C(F)(F)F)C(F)(F)F)ccc2ccccc12 [N-[2-(2,2,2-Trifluoro-1-hydroxy-1-trifluoromethyl-ethyl)-naphthalen-1-yl]-acetamide]",18 nM
15,"O=C(Nc1c(C(O)(C(F)(F)F)C(F)(F)F)ccc2ccccc12)c1ccccc1 [N-[2-(2,2,2-Trifluoro-1-hydroxy-1-trifluoromethyl-ethyl)-naphthalen-1-yl]-benzamide]",44 nM
16,"CCCC(=O)Nc1c(C(O)(C(F)(F)F)C(F)(F)F)ccc2ccccc12 [N-[2-(2,2,2-Trifluoro-1-hydroxy-1-trifluoromethyl-ethyl)-naphthalen-1-yl]-butyramide]",131 nM
17,"O=C(Nc1c(C(O)(C(F)(F)F)C(F)(F)F)ccc2ccccc12)c1cccnc1 [N-[2-(2,2,2-Trifluoro-1-hydroxy-1-trifluoromethyl-ethyl)-naphthalen-1-yl]-nicotinamide]",60 nM
18,"O=C(Nc1c(C(O)(C(F)(F)F)C(F)(F)F)ccc2ccccc12)c1cnco1 [Oxazole-5-carboxylic acid [2-(2,2,2-trifluoro-1-hydroxy-1-trifluoromethyl-ethyl)-naphthalen-1-yl]-amide]",24 nM
19,"O=C(Nc1c(C(O)(C(F)(F)F)C(F)(F)F)ccc2ccccc12)c1cnc2ccccc2n1 [Quinoxaline-2-carboxylic acid [2-(2,2,2-trifluoro-1-hydroxy-1-trifluoromethyl-ethyl)-naphthalen-1-yl]-amide]",317 nM
20,"O=C(Nc1c(C(O)(C(F)(F)F)C(F)(F)F)ccc2ccccc12)c1cccs1 [Thiophene-2-carboxylic acid [2-(2,2,2-trifluoro-1-hydroxy-1-trifluoromethyl-ethyl)-naphthalen-1-yl]-amide]",12 nM

# The remaining lines, values ahead:
row,EC50,Structure (SMILES)
1,46 nM,"CC(C)=CC(=O)Nc1c(C(O)(C(F)(F)F)C(F)(F)F)ccc2ccccc12 [3-Methyl-but-2-enoic acid [2-(2,2,2-trifluoro-1-hydroxy-1-trifluoromethyl-ethyl)-naphthalen-1-yl]-amide]"
2,1750 nM,"O=C(CCc1ccccc1)Nc1c(C(O)(C(F)(F)F)C(F)(F)F)ccc2ccccc12 [3-Phenyl-N-[2-(2,2,2-trifluoro-1-hydroxy-1-trifluoromethyl-ethyl)-naphthalen-1-yl]-propionamide]"
3,154 nM,"O=C(Nc1c(C(O)(C(F)(F)F)C(F)(F)F)ccc2ccccc12)c1ccc(I)cc1 [4-Iodo-N-[2-(2,2,2-trifluoro-1-hydroxy-1-trifluoromethyl-ethyl)-naphthalen-1-yl]-benzamide]"
4,> 10000 nM,"O=C(Nc1c(C(O)(C(F)(F)F)C(F)(F)F)ccc2ccccc12)c1cc2ccccc2s1 [Benzo[b]thiophene-2-carboxylic acid [2-(2,2,2-trifluoro-1-hydroxy-1-trifluoromethyl-ethyl)-naphthalen-1-yl]-amide]"
5,72 nM,"C/C=C/C(=O)Nc1c(C(O)(C(F)(F)F)C(F)(F)F)ccc2ccccc12 [But-2-enoic acid [2-(2,2,2-trifluoro-1-hydroxy-1-trifluoromethyl-ethyl)-naphthalen-1-yl]-amide]"
6,495 nM,"O=C(Nc1c(C(O)(C(F)(F)F)C(F)(F)F)ccc2ccccc12)C1CCCC1 [Cyclopentanecarboxylic acid [2-(2,2,2-trifluoro-1-hydroxy-1-trifluoromethyl-ethyl)-naphthalen-1-yl]-amide]"
7,9 nM,"O=C(Nc1c(C(O)(C(F)(F)F)C(F)(F)F)ccc2ccccc12)c1ccco1 [Furan-2-carboxylic acid [2-(2,2,2-trifluoro-1-hydroxy-1-trifluoromethyl-ethyl)-naphthalen-1-yl]-amide]"
8,84 nM,"O=C(Nc1c(C(O)(C(F)(F)F)C(F)(F)F)ccc2ccccc12)c1cccc(C(F)(F)F)c1 [N-[2-(2,2,2-Trifluoro-1-hydroxy-1-trifluoromethyl-ethyl)-naphthalen-1-yl]-3-trifluoromethyl-benzamide]"
9,6630 nM,"CC(C)C(=O)Nc1c(C(O)(C(F)(F)F)C(F)(F)F)ccc2ccccc12 [N-[2-(2,2,2-Trifluoro-1-hydroxy-1-trifluoromethyl-ethyl)-naphthalen-1-yl]-isobutyramide]"
10,15 nM,"CCC(=O)Nc1c(C(O)(C(F)(F)F)C(F)(F)F)ccc2ccccc12 [N-[2-(2,2,2-Trifluoro-1-hydroxy-1-trifluoromethyl-ethyl)-naphthalen-1-yl]-propionamide]"
11,5310 nM,"CC(=O)Nc1c(C(O)(C(F)(F)F)C(F)(F)F)cc(Br)c2ccccc12 [N-[4-Bromo-2-(2,2,2-trifluoro-1-hydroxy-1-trifluoromethyl-ethyl)-naphthalen-1-yl]-acetamide]"
12,137 nM,"CC(=O)Nc1c(C(O)(C(F)(F)F)C(F)(F)F)ccc2c(O)cccc12 [N-[5-Hydroxy-2-(2,2,2-trifluoro-1-hydroxy-1-trifluoromethyl-ethyl)-naphthalen-1-yl]-acetamide]"
13,2220 nM,"CC(=O)Nc1c(C(O)(C(F)(F)F)C(F)(F)F)ccc2cc(O)ccc12 [N-[6-Hydroxy-2-(2,2,2-trifluoro-1-hydroxy-1-trifluoromethyl-ethyl)-naphthalen-1-yl]-acetamide]"
14,1160 nM,"CC(C)OC(=O)Nc1c(C(O)(C(F)(F)F)C(F)(F)F)ccc2ccccc12 [[2-(2,2,2-Trifluoro-1-hydroxy-1-trifluoromethyl-ethyl)-naphthalen-1-yl]-carbamic acid isopropyl ester]"
